Measurements reported in ChEMBL document CHEMBL1201862, “PubChem BioAssay data set” (2004).
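Exposure lasted 48 hours, with cells grown in 96-well plates and compounds tested at five concentrations. GI50 = concentration required for 50% inhibition of growth.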 Calls of active or inactive are those of the source. No stated cut-off is given here; in the data, active = GI50 up to about 1.1 µM and inactive = higher.

Tests used:
Assay in all cases: NCI-60 cell line screen, 48 h
NCI-H23 = system: NCI-H23
CAKI-1 = system: CAKI-1
SNB-19 = system: SNB-19
IGROV-1 = system: IGROV-1
TK-10 = system: TK-10
SK-MEL-2 = system: SK-MEL-2
SNB-75 = system: SNB-75
U-251 = system: U-251
MCF7 = system: MCF7
MDA-MB-435 = system: MDA-MB-435
SF-539 = system: SF-539
A549 = system: A549
Hs-578T = system: Hs-578T
SN12C = system: SN12C
HCT-15 = system: HCT-15
NCI-H460 = system: NCI-H460
UO-31 = system: UO-31
MDA-N = system: MDA-N
NCI/ADR-RES = system: NCI/ADR-RES
EKVX = system: EKVX
M14 = system: M14
MOLT-4 = system: MOLT-4
OVCAR-3 = system: OVCAR-3
LOX IMVI = system: LOX IMVI
T47D = system: T47D
HT-29 = system: HT-29
MDA-MB-231 = system: MDA-MB-231
COLO 205 = system: COLO 205
SK-MEL-5 = system: SK-MEL-5
HL-60 = system: HL-60
NCI-H522 = system: NCI-H522
SR = system: SR
OVCAR-8 = system: OVCAR-8
UACC-257 = system: UACC-257
PC-3 = system: PC-3
HOP-62 = system: HOP-62
SK-MEL-28 = system: SK-MEL-28
HOP-92 = system: HOP-92
CCRF-CEM = system: CCRF-CEM
BT-549 = system: BT-549
SW-620 = system: SW-620
OVCAR-5 = system: OVCAR-5
786-0 = system: 786-0
RPMI-8226 = system: RPMI-8226
KM12 = system: KM12
HCC 2998 = system: HCC 2998
DU-145 = system: DU-145
SF-268 = system: SF-268
UACC-62 = system: UACC-62
ACHN = system: ACHN
HCT-116 = system: HCT-116
SF-295 = system: SF-295

CC(C(N)C(=O)NC(C(=O)O)C1OC(n2ccc(=O)[nH]c2=O)C(O)C1O)C(O)c1ccc(O)cn1 (configuration not stated)
GI50 (NCI-H23): > 100 µM (inactive)
GI50 (CAKI-1): > 100 µM (inactive)
GI50 (SNB-19): > 100 µM (inactive)
GI50 (IGROV-1): > 100 µM (inactive)
GI50 (TK-10): > 100 µM (inactive)
GI50 (SK-MEL-2): > 100 µM (inactive)
GI50 (SNB-75): > 100 µM (inactive)
GI50 (U-251): > 100 µM (inactive)
GI50 (MCF7): > 100 µM (inactive)
GI50 (MDA-MB-435): > 100 µM (inactive)
GI50 (SF-539): > 100 µM (inactive)
GI50 (A549): > 100 µM (inactive)
GI50 (Hs-578T): > 100 µM (inactive)
GI50 (SN12C): > 100 µM (inactive)
GI50 (HCT-15): > 100 µM
GI50 (NCI-H460): > 100 µM (inactive)
GI50 (UO-31): > 100 µM (inactive)
GI50 (MDA-N): > 100 µM (inactive)
GI50 (NCI/ADR-RES): > 100 µM (inactive)
GI50 (EKVX): > 100 µM (inactive)
GI50 (M14): > 100 µM (inactive)
GI50 (MOLT-4): > 100 µM (inactive)
GI50 (OVCAR-3): > 100 µM (inactive)
GI50 (LOX IMVI): > 100 µM (inactive)
GI50 (T47D): > 100 µM (inactive)
GI50 (HT-29): > 100 µM (inactive)
GI50 (MDA-MB-231): > 100 µM (inactive)
GI50 (COLO 205): > 100 µM (inactive)
GI50 (SK-MEL-5): > 100 µM (inactive)
GI50 (HL-60): > 100 µM (inactive)
GI50 (NCI-H522): > 100 µM (inactive)
GI50 (SR): > 100 µM (inactive)
GI50 (OVCAR-8): > 100 µM (inactive)
GI50 (UACC-257): > 100 µM (inactive)
GI50 (PC-3): > 100 µM (inactive)
GI50 (HOP-62): > 100 µM (inactive)
GI50 (SK-MEL-28): > 100 µM (inactive)
GI50 (HOP-92): > 100 µM (inactive)
GI50 (CCRF-CEM): > 100 µM (inactive)
GI50 (BT-549): > 100 µM (inactive)
GI50 (SW-620): > 100 µM (inactive)
GI50 (OVCAR-5): > 100 µM (inactive)
GI50 (786-0): > 100 µM (inactive)
GI50 (RPMI-8226): > 100 µM (inactive)
GI50 (KM12): > 100 µM (inactive)
GI50 (HCC 2998): > 100 µM (inactive)
GI50 (DU-145): > 100 µM (inactive)
GI50 (SF-268): > 100 µM (inactive)
GI50 (UACC-62): > 100 µM (inactive)
GI50 (ACHN): > 100 µM (inactive)
GI50 (HCT-116): > 100 µM (inactive)
GI50 (SF-295): > 100 µM (inactive)
